± gives the standard deviation of the averaged measurements.
Assays:
Test in all cases: level (log10 ratio to DMSO vehicle control); higher = higher biomarker level / cell amount than vehicle control
[1] = compound: C=CC(=O)OCCC(F)(F)C(F)(F)C(F)(F)C(F)(F)C(F)(F)C(F)(F)C(F)(F)C(F)(F)F [8:2 Fluorotelomer acrylate]; conditions: in DMSO
Experimental: (§1)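 BioMAP Diversity Plus panel of 12 human primary cell co-culture systems (3C, 4H, LPS, SAg, BT, BF4T, BE3C, CASM3C, HDF3CGF, KF3CT, MyoF, Mphg). Compounds were added 1 h before stimulation and left for 24 h (MyoF 48 h; BT 72 h for soluble read-outs or 6 d for IgG). Biomarkers were read by ELISA, cytotoxicity by SRB, PBMC viability and proliferation by Alamar Blue. Each well value was divided by the mean of 8 DMSO control wells on the same plate and log10 transformed; duplicate blinded samples were tested at 4 concentrations.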

[2] = compound: O=C(O)C(F)(F)C(F)(F)C(=O)O [Tetrafluorosuccinic acid]; conditions: in DMSO
Experimental: as §1

[3] = compound: O=C(O)C(F)(F)C(F)(F)C(F)(F)C(F)(F)C(F)(F)C(F)(F)C(F)(F)F [Ammonium perfluorooctanoate]; conditions: in DMSO
Experimental: as §1

[4] = compound: O=C(O)C(F)(F)C(F)(F)C(F)(F)C(F)(F)C(F)(F)C(F)(F)C(F)(F)F [Perfluorooctanoic acid]; conditions: in DMSO
Experimental: as §1

[5] = compound: O=S(=O)(OCC(F)(F)F)C(F)(F)C(F)(F)C(F)(F)C(F)(F)F [2,2,2-Trifluoroethyl perfluorobutanesulfonate]; conditions: in DMSO
Experimental: as §1

[6] = compound: OCC(F)(F)C(F)(F)C(F)(F)C(F)(F)C(F)(F)C(F)(F)C(F)(F)C(F)(F)C(F)(F)C(F)(F)C(F)(F)F [11:1 Fluorotelomer alcohol]; conditions: in DMSO
Experimental: as §1

[7] = compound: OCCC(F)(F)C(F)(F)C(F)(F)C(F)(F)C(F)(F)C(F)(F)C(F)(F)C(F)(F)F [8:2 Fluorotelomer alcohol]; conditions: 6700 nM; in DMSO
Experimental: as §1

Row | Test System | level (log10) ([1]; 6700 nM) | level (log10) ([1]; 20000 nM) | level (log10) ([1]; 60000 nM) | level (log10) ([2]; 6700 nM) | level (log10) ([2]; 20000 nM) | level (log10) ([2]; 60000 nM) | level (log10) ([3]; 6700 nM) | level (log10) ([3]; 20000 nM) | level (log10) ([3]; 60000 nM) | level (log10) ([4]; 6700 nM) | level (log10) ([4]; 20000 nM) | level (log10) ([4]; 60000 nM) | level (log10) ([5]; 6700 nM) | level (log10) ([5]; 20000 nM) | level (log10) ([5]; 60000 nM) | level (log10) ([6]; 1100 nM) | level (log10) ([6]; 3300 nM) | level (log10) ([6]; 10000 nM) | level (log10) [7]
1 | MyoF:SRB | 0 ± 0.0014 | -0.001 ± 0.0028 | -0.0095 ± 0.0092 | -0.0035 ± 0.0035 | -0.0135 ± 0.0021 | -0.01 ± 0.0014 | 0.0005 ± 0.011 | 0.01 ± 0.011 | -0.048 ± 0.014 | 0.0025 ± 0.0035 | 0.0065 ± 0.012 | -0.034 ± 0.0057 | 0.0005 ± 0.011 | -0.009 ± 0.014 | -0.0255 ± 0.021 | 0 ± 0.0042 | -0.0015 ± 0.012 | 0.0015 ± 0.016 | -0.0005 ± 0.015
2 | 3C:CD106/VCAM-1 | -0.0185 ± 0.015 | -0.027 ± 0.041 | -0.024 ± 0.05 | -0.015 ± 0.014 | -0.015 ± 0.011 | -0.0105 ± 0.018 | 0.004 ± 0.03 | -0.0025 ± 0.03 | 0.019 ± 0.041 | -0.0435 ± 0.053 | -0.0325 ± 0.05 | -0.013 ± 0.067 | -0.0165 ± 0.012 | -0.016 ± 0.0085 | 0.0015 ± 0.0021 | 0.008 ± 0.016 | 0.007 | 0.022 ± 0.0099 | -0.035 ± 0.061
3 | MyoF:Collagen I | -0.0095 ± 0.005 | -0.0205 ± 0.015 | 0.011 ± 0.0099 | 0.0045 ± 0.0021 | 0.007 ± 0.0014 | 0.0005 ± 0.012 | -0.006 ± 0.0014 | 0.0025 ± 0.013 | -0.0125 ± 0.015 | -0.0065 ± 0.0092 | -0.0035 ± 0.036 | -0.034 ± 0.017 | -0.0215 ± 0.0092 | -0.0045 ± 0.03 | -0.043 ± 0.023 | 0.051 ± 0.047 | 0.0475 ± 0.021 | 0.0435 ± 0.013 | -0.0025 ± 0.021
4 | HDF3CGF:PAI-I | -0.0135 ± 0.013 | -0.0665 ± 0.0021 | -0.071 ± 0.0057 | -0.0295 ± 0.0078 | -0.009 ± 0.0014 | 0.003 ± 0.037 | 0.0885 ± 0.03 | 0.0995 ± 0.044 | 0.017 ± 0.044 | 0.02 ± 0.0071 | 0.0425 ± 0.019 | 0.088 ± 0.065 | -0.0125 ± 0.0092 | -0.02 ± 0.024 | -0.021 ± 0.0014 | 0.037 ± 0.0014 | 0.0515 ± 0.012 | 0.029 ± 0.075 | -0.0555 ± 0.0035
5 | lMphg:IL-1alpha | -0.012 | -0.007 ± 0.021 | 0.035 ± 0.059 | -0.016 ± 0.0057 | -0.015 ± 0.025 | -0.0035 ± 0.03 | 0.0005 ± 0.026 | 0.0005 ± 0.0064 | 0.004 ± 0.014 | -0.0105 ± 0.0021 | -0.0085 ± 0.026 | 0.0545 ± 0.026 | -0.012 ± 0.0028 | -0.0425 ± 0.06 | -0.073 ± 0.0014 | 0.057 ± 0.025 | 0.039 ± 0.0085 | -0.12 ± 0.076 | -0.0045 ± 0.025
6 | HDF3CGF:MMP-1 | 0.0165 ± 0.015 | 0.026 ± 0.011 | 0.0235 ± 0.029 | 0.0295 ± 0.015 | 0.0315 ± 0.021 | 0.0195 ± 0.022 | 0.027 ± 0.0085 | -0.002 ± 0.0099 | -0.027 ± 0.062 | -0.0155 ± 0.0064 | -0.048 ± 0.0085 | -0.035 ± 0.023 | 0.0125 ± 0.0078 | 0.022 ± 0.0085 | 0.0405 ± 0.0092 | -0.011 ± 0.0057 | -0.042 ± 0.0014 | -0.0255 ± 0.035 | 0.034 ± 0.0014
7 | CASM3C:CD87/uPAR | -0.035 ± 0.021 | -0.027 ± 0.011 | -0.004 ± 0.0014 | -0.01 ± 0.021 | -0.024 ± 0.013 | -0.0185 ± 0.0021 | 0.003 ± 0.03 | 0.008 ± 0.0028 | 0.0045 ± 0.023 | -0.049 ± 0.047 | -0.021 ± 0.082 | -0.0035 ± 0.067 | -0.047 ± 0.064 | -0.0215 ± 0.059 | -0.048 ± 0.033 | 0.0055 ± 0.025 | -0.004 ± 0.021 | 0.0085 ± 0.032 | -0.018 ± 0.054
8 | CASM3C:HLA-DR | -0.0145 ± 0.0078 | -0.0045 ± 0.0021 | 0.022 ± 0.013 | -0.005 ± 0.0099 | -0.0145 ± 0.013 | 0.0015 ± 0.0064 | 0.0085 ± 0.012 | -0.0055 ± 0.0021 | 0.0015 ± 0.023 | 0.0045 ± 0.015 | -0.0045 ± 0.0021 | -0.0045 ± 0.043 | 0.0015 ± 0.0064 | -0.0015 ± 0.0064 | 0.0125 ± 0.005 | 0.0075 ± 0.016 | 0.0015 ± 0.00071 | 0.0095 ± 0.0035 | -0.022 ± 0.018
9 | HDF3CGF:CXCL9/MIG | -0.0115 ± 0.015 | -0.007 ± 0.011 | -0.007 ± 0.0042 | -0.0285 ± 0.029 | -0.039 ± 0.065 | -0.06 ± 0.086 | -0.0195 ± 0.0092 | -0.0085 ± 0.025 | -0.0915 ± 0.047 | 0.001 ± 0.0057 | -0.0245 ± 0.036 | -0.0095 ± 0.028 | -0.0075 ± 0.016 | -0.011 ± 0.014 | -0.039 ± 0.0071 | 0.009 | -0.0145 ± 0.00071 | 0.009 ± 0.05 | 0.004 ± 0.0028
10 | HDF3CGF:CXCL8/IL-8 | -0.01 ± 0.0085 | -0.0105 ± 0.0035 | -0.0095 ± 0.026 | -0.01 ± 0.0085 | -0.004 ± 0.0085 | -0.0055 ± 0.0078 | -0.0025 ± 0.005 | 0.002 ± 0.0042 | 0.003 | 0.0015 ± 0.0021 | 0.002 ± 0.0014 | 0.015 ± 0.014 | 0.003 ± 0.0071 | 0.001 ± 0.0071 | 0.0125 ± 0.0064 | -0.002 ± 0.0057 | -0.007 | -0.001 | 0.005 ± 0.0099
11 | BE3C:MMP-9 | -0.027 ± 0.0071 | -0.016 ± 0.0042 | -0.011 ± 0.024 | -0.014 ± 0.027 | -0.0035 ± 0.011 | -0.005 ± 0.0028 | -0.0145 ± 0.0064 | 0.047 ± 0.0042 | 0.0375 ± 0.021 | -0.0185 ± 0.012 | 0.015 ± 0.0028 | 0.079 ± 0.047 | -0.0355 ± 0.021 | -0.041 ± 0.033 | -0.061 ± 0.028 | -0.0475 ± 0.029 | -0.102 ± 0.0042 | -0.0735 ± 0.019 | -0.028 ± 0.02
12 | CASM3C:CD142/Tissue Factor | -0.036 ± 0.021 | -0.047 ± 0.05 | -0.0145 ± 0.032 | -0.0165 ± 0.026 | -0.0345 ± 0.00071 | -0.025 ± 0.024 | 0.005 ± 0.028 | -0.009 ± 0.025 | -0.01 ± 0.024 | -0.0055 ± 0.039 | -0.008 ± 0.048 | -0.0345 ± 0.061 | 0.013 ± 0.011 | 0.0485 ± 0.0021 | 0.133 ± 0.052 | -0.013 ± 0.02 | -0.0225 ± 0.016 | -0.038 ± 0.02 | -0.011 ± 0.014
13 | MyoF:Collagen III | -0.0105 ± 0.0078 | -0.019 ± 0.0085 | -0.03 ± 0.0028 | -0.013 ± 0.016 | -0.0205 ± 0.005 | -0.016 ± 0.0099 | 0.0015 ± 0.00071 | -0.0095 ± 0.0064 | -0.0225 ± 0.0021 | 0.007 ± 0.0028 | -0.001 ± 0.0071 | -0.039 ± 0.0099 | -0.013 ± 0.0085 | -0.006 ± 0.016 | -0.0365 ± 0.005 | 0.011 ± 0.0085 | -0.0005 ± 0.00071 | -0.001 ± 0.0071 | -0.0205 ± 0.021
14 | 3C:CD62E/E-Selectin | -0.0165 ± 0.011 | -0.0145 ± 0.022 | 0.001 ± 0.035 | -0.0015 ± 0.016 | -0.0155 ± 0.0064 | -0.01 ± 0.0099 | 0.006 ± 0.011 | -0.007 ± 0.017 | 0.0085 ± 0.046 | 0.001 ± 0.0042 | 0.0195 ± 0.0035 | 0.0725 ± 0.0078 | -0.0085 ± 0.013 | -0.0385 ± 0.021 | -0.0045 ± 0.016 | -0.0125 ± 0.013 | 0.008 ± 0.0028 | 0.0155 ± 0.0078 | -0.016 ± 0.0099
15 | KF3CT:uPA | 0.003 ± 0.013 | -0.0165 ± 0.037 | -0.004 ± 0.0014 | -0.012 ± 0.0071 | 0.0025 ± 0.0064 | -0.0285 ± 0.00071 | 0.0125 ± 0.012 | 0.006 ± 0.017 | 0.001 ± 0.013 | 0.0095 ± 0.0021 | 0.012 ± 0.0042 | 0.013 ± 0.017 | -0.0085 ± 0.0021 | -0.043 ± 0.079 | -0.075 ± 0.0042 | -0.0115 ± 0.015 | -0.0335 ± 0.00071 | -0.023 ± 0.016 | 0.0155 ± 0.0078

— the supplement of paper PMC10331698
